Source: the supplement of paper PMC12463676, “Small-molecule dissolution of stress granules by redox modulation benefits ALS models” (Nature Chemical Biology, 2025)

Tests used:
lipoamide = compound: NC(=O)CCCCC1CCSS1 [lipoamide]; experiment: thermal stability z-score vs DMSO; higher = more thermally stabilized by treatment; details: HeLa, lipoamide concentration 100 µM
Procedure: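 Cellular thermal proteome profiling in HeLa cells. Cells were treated with 100 µM lipoamide for 1 h, with or without 1 mM arsenate for a further 1 h, then heated to ten temperatures (37-66.3 °C), and soluble protein was quantified by TMT mass spectrometry relative to 0.1% DMSO controls. The thermal stability score (sum of log2 fold changes minus the abundance score) was transformed to a z-score; mean of n = 3 experiments.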

potassium arsenate = compound: O=[As]([O-])(O)O.[K+] [potassium arsenate]; experiment: as above; details: HeLa; arsenate concentration 1 mM
Procedure: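 Cellular thermal proteome profiling in HeLa cells treated with 1 mM arsenate for 1 h (DMSO pretreatment), heated to ten temperatures (37-66.3 °C). Soluble protein was quantified by TMT mass spectrometry relative to DMSO controls; the thermal stability score was transformed to a z-score; mean of n = 3 experiments.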

[1] = arsenate co-treatment: 1 mM arsenate 1 h
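Note: each temperature applied for 3 min, abundance score taken as mean log2 fold change at the two lowest temperatures, z-score obtained by mean subtraction and division by SD.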

Target: RAP1GDS1 (UniProt P52306)
Sequence of UniProt P52306 (P52306 whole entry): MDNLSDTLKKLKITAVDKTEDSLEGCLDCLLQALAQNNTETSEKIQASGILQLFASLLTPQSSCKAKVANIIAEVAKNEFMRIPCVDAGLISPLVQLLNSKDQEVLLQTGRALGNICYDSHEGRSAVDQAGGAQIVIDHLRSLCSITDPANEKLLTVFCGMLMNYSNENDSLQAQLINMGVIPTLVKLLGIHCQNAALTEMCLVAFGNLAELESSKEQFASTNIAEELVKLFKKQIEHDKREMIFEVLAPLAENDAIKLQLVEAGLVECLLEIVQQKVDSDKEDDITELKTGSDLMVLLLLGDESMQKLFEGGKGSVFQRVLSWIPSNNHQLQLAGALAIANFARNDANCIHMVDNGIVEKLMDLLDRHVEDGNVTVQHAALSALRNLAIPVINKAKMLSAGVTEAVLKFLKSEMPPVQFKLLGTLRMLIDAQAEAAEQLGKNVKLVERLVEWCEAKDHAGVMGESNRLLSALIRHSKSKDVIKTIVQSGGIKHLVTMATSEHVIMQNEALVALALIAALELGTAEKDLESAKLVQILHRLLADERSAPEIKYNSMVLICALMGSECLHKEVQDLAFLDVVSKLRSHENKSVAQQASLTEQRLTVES
- thermal stability z-score (lipoamide; [1]): 0.161
- thermal stability z-score (lipoamide; arsenate co-treatment: none): -0.118
- thermal stability z-score (potassium arsenate): 0.353

Target: ILKAP (UniProt Q9H0C8)
- thermal stability z-score (lipoamide; [1]): 0.624
- thermal stability z-score (lipoamide; arsenate co-treatment: none): 0.292
- thermal stability z-score (potassium arsenate): -0.406

Target: ERAL1 (UniProt O75616)
- thermal stability z-score (lipoamide; [1]): -0.329
- thermal stability z-score (lipoamide; arsenate co-treatment: none): -0.113
- thermal stability z-score (potassium arsenate): -0.45

Target: TRIP12 (UniProt Q14669)
- thermal stability z-score (lipoamide; [1]): -0.227
- thermal stability z-score (lipoamide; arsenate co-treatment: none): -0.162
- thermal stability z-score (potassium arsenate): 0.157

Target: TCF3 (UniProt P15923)
- thermal stability z-score (lipoamide; [1]): -0.098
- thermal stability z-score (lipoamide; arsenate co-treatment: none): -0.0941
- thermal stability z-score (potassium arsenate): -0.203

Target: SNX2 (UniProt O60749)
Sequence of UniProt O60749 (O60749 whole entry): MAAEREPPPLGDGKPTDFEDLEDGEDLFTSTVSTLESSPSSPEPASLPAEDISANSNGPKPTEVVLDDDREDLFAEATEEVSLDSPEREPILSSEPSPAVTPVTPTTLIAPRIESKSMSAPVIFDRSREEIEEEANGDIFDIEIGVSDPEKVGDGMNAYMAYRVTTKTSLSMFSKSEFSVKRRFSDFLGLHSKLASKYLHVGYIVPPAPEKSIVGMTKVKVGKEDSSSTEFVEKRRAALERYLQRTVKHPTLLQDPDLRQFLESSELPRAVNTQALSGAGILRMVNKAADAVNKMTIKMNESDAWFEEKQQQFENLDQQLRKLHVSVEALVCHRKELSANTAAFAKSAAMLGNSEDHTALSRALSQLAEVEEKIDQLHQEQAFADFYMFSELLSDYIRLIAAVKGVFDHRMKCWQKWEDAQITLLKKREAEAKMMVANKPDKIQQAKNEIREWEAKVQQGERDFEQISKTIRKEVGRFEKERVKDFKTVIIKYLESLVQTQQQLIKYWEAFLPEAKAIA
- thermal stability z-score (lipoamide; [1]): -0.0255
- thermal stability z-score (lipoamide; arsenate co-treatment: none): 0.0641
- thermal stability z-score (potassium arsenate): 0.364

Target: MRPL4 (UniProt Q9BYD3)
- thermal stability z-score (lipoamide; [1]): -0.319
- thermal stability z-score (lipoamide; arsenate co-treatment: none): -0.59
- thermal stability z-score (potassium arsenate): -0.138

Target: IST1 (UniProt P53990)
Sequence of UniProt P53990 (P53990 whole entry): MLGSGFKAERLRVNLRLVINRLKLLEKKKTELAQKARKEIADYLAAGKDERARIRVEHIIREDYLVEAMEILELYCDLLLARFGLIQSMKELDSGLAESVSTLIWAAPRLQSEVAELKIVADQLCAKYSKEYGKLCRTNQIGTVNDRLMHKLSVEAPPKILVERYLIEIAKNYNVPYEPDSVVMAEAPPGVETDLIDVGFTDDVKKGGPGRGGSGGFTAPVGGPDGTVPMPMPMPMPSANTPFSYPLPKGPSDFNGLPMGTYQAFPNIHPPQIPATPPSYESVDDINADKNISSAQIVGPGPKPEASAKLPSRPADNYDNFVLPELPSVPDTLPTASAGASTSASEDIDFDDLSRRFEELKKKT
- thermal stability z-score (lipoamide; [1]): 0.453
- thermal stability z-score (lipoamide; arsenate co-treatment: none): 0.367
- thermal stability z-score (potassium arsenate): 0.351

Target: G3BP2 (UniProt Q9UN86)
- thermal stability z-score (lipoamide; [1]): -0.0281
- thermal stability z-score (lipoamide; arsenate co-treatment: none): -0.411
- thermal stability z-score (potassium arsenate): 0.561

Target: CEP131 (UniProt Q9UPN4)
- thermal stability z-score (lipoamide; [1]): -0.287
- thermal stability z-score (lipoamide; arsenate co-treatment: none): -0.195
- thermal stability z-score (potassium arsenate): 0.215

Target: GTF3A (UniProt Q92664)
- thermal stability z-score (lipoamide; [1]): -0.654
- thermal stability z-score (lipoamide; arsenate co-treatment: none): -0.754
- thermal stability z-score (potassium arsenate): -1.35

Target: SLC35D1 (UniProt Q9NTN3)
- thermal stability z-score (lipoamide; [1]): -2.29
- thermal stability z-score (lipoamide; arsenate co-treatment: none): -2.36
- thermal stability z-score (potassium arsenate): -1.34

Target: TMEM68 (UniProt Q96MH6)
- thermal stability z-score (lipoamide; [1]): 0.361
- thermal stability z-score (lipoamide; arsenate co-treatment: none): -0.287
- thermal stability z-score (potassium arsenate): -0.552

Target: SCARB2 (UniProt Q14108)
- thermal stability z-score (lipoamide; [1]): 0.111
- thermal stability z-score (lipoamide; arsenate co-treatment: none): 0.346
- thermal stability z-score (potassium arsenate): 0.368

Target: SPAG1 (UniProt Q07617)
- thermal stability z-score (lipoamide; [1]): 0.0825
- thermal stability z-score (lipoamide; arsenate co-treatment: none): 0.0754
- thermal stability z-score (potassium arsenate): -0.401

Target: WNT5A (UniProt P41221)
- thermal stability z-score (lipoamide; [1]): -0.888
- thermal stability z-score (lipoamide; arsenate co-treatment: none): -0.379
- thermal stability z-score (potassium arsenate): 0.214

Target: PPP1R12A (UniProt O14974)
- thermal stability z-score (lipoamide; [1]): 1.32
- thermal stability z-score (lipoamide; arsenate co-treatment: none): 0.52
- thermal stability z-score (potassium arsenate): 0.979

Target: EFEMP1 (UniProt Q12805)
- thermal stability z-score (lipoamide; [1]): -3.26
- thermal stability z-score (lipoamide; arsenate co-treatment: none): -2.96
- thermal stability z-score (potassium arsenate): 0.134

Target: LMNB1 (UniProt P20700)
- thermal stability z-score (lipoamide; [1]): 2.11
- thermal stability z-score (lipoamide; arsenate co-treatment: none): -0.38
- thermal stability z-score (potassium arsenate): 0.742

Target: PSMA1 (UniProt P25786)
- thermal stability z-score (lipoamide; [1]): 0.629
- thermal stability z-score (lipoamide; arsenate co-treatment: none): 0.284
- thermal stability z-score (potassium arsenate): 0.373

Target: FASTKD1 (UniProt Q53R41)
Sequence of UniProt Q53R41 (Q53R41 whole entry): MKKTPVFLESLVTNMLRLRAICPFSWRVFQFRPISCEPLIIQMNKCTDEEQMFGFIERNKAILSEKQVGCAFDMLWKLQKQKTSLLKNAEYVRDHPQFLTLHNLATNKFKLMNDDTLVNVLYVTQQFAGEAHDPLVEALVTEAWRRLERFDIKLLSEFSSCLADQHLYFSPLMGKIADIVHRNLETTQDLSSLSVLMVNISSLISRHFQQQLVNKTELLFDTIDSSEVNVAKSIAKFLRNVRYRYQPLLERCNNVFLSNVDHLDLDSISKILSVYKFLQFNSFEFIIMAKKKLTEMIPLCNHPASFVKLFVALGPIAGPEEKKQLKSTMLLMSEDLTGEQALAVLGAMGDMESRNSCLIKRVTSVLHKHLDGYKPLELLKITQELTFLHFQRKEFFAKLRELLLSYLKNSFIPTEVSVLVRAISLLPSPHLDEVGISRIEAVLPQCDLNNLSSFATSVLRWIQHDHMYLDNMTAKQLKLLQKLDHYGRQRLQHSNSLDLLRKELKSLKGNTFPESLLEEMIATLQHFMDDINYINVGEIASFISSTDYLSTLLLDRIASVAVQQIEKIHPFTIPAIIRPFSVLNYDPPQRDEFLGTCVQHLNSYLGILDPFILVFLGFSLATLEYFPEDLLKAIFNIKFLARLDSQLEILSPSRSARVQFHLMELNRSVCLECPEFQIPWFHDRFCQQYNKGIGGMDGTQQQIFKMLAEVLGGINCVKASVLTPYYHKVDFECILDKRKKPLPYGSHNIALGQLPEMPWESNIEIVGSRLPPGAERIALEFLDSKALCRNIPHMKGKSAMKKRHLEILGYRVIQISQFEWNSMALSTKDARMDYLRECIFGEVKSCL
- thermal stability z-score (lipoamide; [1]): -0.195
- thermal stability z-score (lipoamide; arsenate co-treatment: none): -0.378
- thermal stability z-score (potassium arsenate): -0.324

Target: HP1BP3 (UniProt Q5SSJ5)
Sequence of UniProt Q5SSJ5 (Q5SSJ5 whole entry): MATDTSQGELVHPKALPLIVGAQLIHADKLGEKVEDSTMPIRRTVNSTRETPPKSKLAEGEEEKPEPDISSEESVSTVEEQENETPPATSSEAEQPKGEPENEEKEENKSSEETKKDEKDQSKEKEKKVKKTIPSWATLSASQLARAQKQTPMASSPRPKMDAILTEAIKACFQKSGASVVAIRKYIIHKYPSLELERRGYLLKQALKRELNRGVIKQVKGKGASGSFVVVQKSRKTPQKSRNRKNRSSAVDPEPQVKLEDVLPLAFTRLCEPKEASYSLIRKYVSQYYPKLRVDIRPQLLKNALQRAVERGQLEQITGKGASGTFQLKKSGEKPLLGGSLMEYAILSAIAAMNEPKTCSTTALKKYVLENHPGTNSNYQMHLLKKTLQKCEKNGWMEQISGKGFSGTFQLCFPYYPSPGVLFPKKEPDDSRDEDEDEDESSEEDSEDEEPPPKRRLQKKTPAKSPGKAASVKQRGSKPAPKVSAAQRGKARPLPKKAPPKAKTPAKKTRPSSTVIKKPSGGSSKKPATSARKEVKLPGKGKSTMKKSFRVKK
- thermal stability z-score (lipoamide; [1]): -0.693
- thermal stability z-score (lipoamide; arsenate co-treatment: none): -0.792
- thermal stability z-score (potassium arsenate): -1.08

Target: COG6 (UniProt Q9Y2V7)
- thermal stability z-score (lipoamide; [1]): -0.00556
- thermal stability z-score (lipoamide; arsenate co-treatment: none): -0.0575
- thermal stability z-score (potassium arsenate): -0.012

Target: CLEC16A (UniProt Q2KHT3)
- thermal stability z-score (lipoamide; [1]): 0.0777
- thermal stability z-score (lipoamide; arsenate co-treatment: none): -0.0307
- thermal stability z-score (potassium arsenate): -0.437

Target: PARD6B (UniProt Q9BYG5)
- thermal stability z-score (lipoamide; [1]): 0.233
- thermal stability z-score (lipoamide; arsenate co-treatment: none): -0.00454
- thermal stability z-score (potassium arsenate): -0.0258

Target: POLR2G (UniProt P62487)
- thermal stability z-score (lipoamide; [1]): 0.343
- thermal stability z-score (lipoamide; arsenate co-treatment: none): 0.681
- thermal stability z-score (potassium arsenate): -1.1

Target: GOLIM4 (UniProt O00461)
- thermal stability z-score (lipoamide; [1]): -0.589
- thermal stability z-score (lipoamide; arsenate co-treatment: none): -0.17
- thermal stability z-score (potassium arsenate): 0.283

Target: NAA35 (UniProt Q5VZE5)
- thermal stability z-score (lipoamide; [1]): 0.334
- thermal stability z-score (lipoamide; arsenate co-treatment: none): 0.635
- thermal stability z-score (potassium arsenate): 0.265

Target: MIPEP (UniProt Q99797)
Sequence of UniProt Q99797 (Q99797 whole entry): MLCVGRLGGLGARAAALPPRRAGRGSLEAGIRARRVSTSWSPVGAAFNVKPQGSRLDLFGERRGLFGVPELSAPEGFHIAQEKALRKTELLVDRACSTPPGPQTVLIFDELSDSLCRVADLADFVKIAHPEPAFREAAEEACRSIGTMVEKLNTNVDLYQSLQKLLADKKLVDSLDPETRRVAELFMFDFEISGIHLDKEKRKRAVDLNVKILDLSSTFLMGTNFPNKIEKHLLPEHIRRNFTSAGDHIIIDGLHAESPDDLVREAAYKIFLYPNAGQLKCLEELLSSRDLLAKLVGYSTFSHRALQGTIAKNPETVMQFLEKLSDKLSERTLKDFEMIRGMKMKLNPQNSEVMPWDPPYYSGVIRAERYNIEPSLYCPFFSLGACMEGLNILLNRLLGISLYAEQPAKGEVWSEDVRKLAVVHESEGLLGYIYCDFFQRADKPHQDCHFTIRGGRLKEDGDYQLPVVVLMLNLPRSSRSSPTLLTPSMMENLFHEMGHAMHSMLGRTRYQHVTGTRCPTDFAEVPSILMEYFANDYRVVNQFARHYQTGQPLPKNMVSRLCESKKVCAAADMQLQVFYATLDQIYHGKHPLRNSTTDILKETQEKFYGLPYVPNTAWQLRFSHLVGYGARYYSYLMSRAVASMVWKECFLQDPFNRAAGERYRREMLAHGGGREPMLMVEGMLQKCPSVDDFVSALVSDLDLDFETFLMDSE
- thermal stability z-score (lipoamide; [1]): -0.162
- thermal stability z-score (lipoamide; arsenate co-treatment: none): 0.0258
- thermal stability z-score (potassium arsenate): -0.271

Target: CTH (UniProt P32929)
Sequence of UniProt P32929 (P32929 whole entry): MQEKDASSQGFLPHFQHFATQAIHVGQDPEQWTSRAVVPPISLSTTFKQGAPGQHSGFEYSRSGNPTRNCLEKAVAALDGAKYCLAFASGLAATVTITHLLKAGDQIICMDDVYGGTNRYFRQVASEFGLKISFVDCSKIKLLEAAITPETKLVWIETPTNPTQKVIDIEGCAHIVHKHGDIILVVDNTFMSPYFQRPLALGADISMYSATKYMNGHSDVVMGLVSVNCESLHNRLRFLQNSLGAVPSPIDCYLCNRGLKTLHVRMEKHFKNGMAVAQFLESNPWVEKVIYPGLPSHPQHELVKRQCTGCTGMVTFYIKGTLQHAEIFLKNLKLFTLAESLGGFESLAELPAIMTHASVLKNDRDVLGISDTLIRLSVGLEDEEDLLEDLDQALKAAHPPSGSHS
- thermal stability z-score (lipoamide; [1]): 0.473
- thermal stability z-score (lipoamide; arsenate co-treatment: none): 0.559
- thermal stability z-score (potassium arsenate): 0.596

Target: BRIX1 (UniProt Q8TDN6)
- thermal stability z-score (lipoamide; [1]): 0.442
- thermal stability z-score (lipoamide; arsenate co-treatment: none): -0.0247
- thermal stability z-score (potassium arsenate): 1.3

Target: ALDH1L2 (UniProt Q3SY69)
Sequence of UniProt Q3SY69 (Q3SY69 whole entry): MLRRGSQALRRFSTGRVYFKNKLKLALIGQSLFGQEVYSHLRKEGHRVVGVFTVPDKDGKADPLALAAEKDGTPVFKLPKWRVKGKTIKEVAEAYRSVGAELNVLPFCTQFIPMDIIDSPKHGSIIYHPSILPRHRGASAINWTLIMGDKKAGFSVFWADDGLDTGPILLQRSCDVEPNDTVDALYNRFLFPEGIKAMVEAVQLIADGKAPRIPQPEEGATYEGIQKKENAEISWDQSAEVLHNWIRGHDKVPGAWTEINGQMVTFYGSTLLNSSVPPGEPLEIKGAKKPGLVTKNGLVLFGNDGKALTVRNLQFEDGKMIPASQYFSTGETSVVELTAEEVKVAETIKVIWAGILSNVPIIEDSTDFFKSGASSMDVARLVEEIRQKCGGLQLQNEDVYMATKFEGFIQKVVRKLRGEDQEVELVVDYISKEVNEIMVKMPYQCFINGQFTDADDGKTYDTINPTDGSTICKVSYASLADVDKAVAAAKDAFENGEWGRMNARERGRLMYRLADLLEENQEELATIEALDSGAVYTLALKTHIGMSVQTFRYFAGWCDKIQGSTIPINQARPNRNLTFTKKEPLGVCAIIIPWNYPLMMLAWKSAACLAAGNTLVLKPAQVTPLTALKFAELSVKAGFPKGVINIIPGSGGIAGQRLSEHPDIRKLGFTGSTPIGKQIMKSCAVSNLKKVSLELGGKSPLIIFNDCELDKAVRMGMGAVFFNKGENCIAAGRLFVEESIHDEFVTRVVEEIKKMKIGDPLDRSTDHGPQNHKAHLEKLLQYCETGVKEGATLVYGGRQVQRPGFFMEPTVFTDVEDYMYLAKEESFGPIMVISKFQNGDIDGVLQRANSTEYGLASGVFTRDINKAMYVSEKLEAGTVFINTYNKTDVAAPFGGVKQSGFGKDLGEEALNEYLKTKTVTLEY
- thermal stability z-score (lipoamide; [1]): -0.223
- thermal stability z-score (lipoamide; arsenate co-treatment: none): 0.327
- thermal stability z-score (potassium arsenate): 0.559

Target: MED24 (UniProt O75448)
- thermal stability z-score (lipoamide; [1]): 0.0619
- thermal stability z-score (lipoamide; arsenate co-treatment: none): -0.0126
- thermal stability z-score (potassium arsenate): -0.0686

Target: RAB33B (UniProt Q9H082)
- thermal stability z-score (lipoamide; [1]): 0.43
- thermal stability z-score (lipoamide; arsenate co-treatment: none): 0.463
- thermal stability z-score (potassium arsenate): 0.955

Target: HOMER1 (UniProt Q86YM7)
- thermal stability z-score (lipoamide; [1]): 0.64
- thermal stability z-score (lipoamide; arsenate co-treatment: none): 0.353
- thermal stability z-score (potassium arsenate): 1.54

Target: OSTF1 (UniProt Q92882)
- thermal stability z-score (lipoamide; [1]): -0.217
- thermal stability z-score (lipoamide; arsenate co-treatment: none): 0.551
- thermal stability z-score (potassium arsenate): 0.00115
